From US11613522B2, “Herbicidally active 3-phenylisoxazoline-5-carboxamides of tetrahydro- and dihydrofurancarboxamides” (BAYER AKTIENGESELLSCHAFT, priority 2017, dated 2023)

How the values were obtained:
Type in all cases: in vivo
Polygonum convolvulus [1] = assay: Post-emergence herbicidal activity against POLCO; conditions: dosage 320 g/ha, rated visually after about 3 weeks
How it was run: (§1)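 Percent herbicidal activity, 0% like controls and 100% dead plants, is scored visually roughly 3 weeks after foliar treatment. Treatment follows 2–3 weeks of greenhouse growth in sandy loam, at the one-leaf stage, using WP or EC preparations in water with 0.5% additive (600 l/ha).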

Abutilon theophrasti = assay: Post-emergence herbicidal activity against ABUTH; conditions: dosage 320 g/ha, rated visually after about 3 weeks
How it was run: as §1

Viola tricolor [2] = assay: Post-emergence herbicidal activity against VIOTR; conditions: dosage 320 g/ha, rated visually after about 3 weeks
How it was run: as §1

Lolium rigidum [3] = assay: Post-emergence herbicidal activity against LOLRI; conditions: dosage 320 g/ha, rated visually after about 3 weeks
How it was run: as §1

Stellaria media [4] = assay: Pre-emergence herbicidal activity against STEME; conditions: dosage 80 g/ha, scored visually after about 3 weeks vs untreated controls
How it was run: (§2)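 Visual percent rating against untreated controls after roughly 3 weeks in the greenhouse, 0% meaning control-like and 100% dead plants. Treatment was pre-emergence: WP or EC formulations sprayed onto covering soil at 600 l/ha water volume with 0.5% additive.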

Pharbitis purpurea [5] = assay: Post-emergence herbicidal activity against PHBPU; conditions: dosage 320 g/ha, rated visually after about 3 weeks
How it was run: as §1

Avena fatua [6] = assay: Pre-emergence herbicidal activity against AVEFA; conditions: dosage 80 g/ha, scored visually after about 3 weeks vs untreated controls
How it was run: as §2

Hordeum murinum [7] = assay: Pre-emergence herbicidal activity against HORMU; conditions: dosage 80 g/ha
How it was run: as §2

Amaranthus retroflexus [8] = assay: Pre-emergence herbicidal activity against AMARE; conditions: dosage 80 g/ha, scored visually after about 3 weeks vs untreated controls
How it was run: as §2

Alopecurus myosuroides [9] = assay: Pre-emergence herbicidal activity against ALOMY; conditions: dosage 80 g/ha, scored visually after about 3 weeks vs untreated controls
How it was run: as §2

[10] = Pre-emergence herbicidal action against harmful plants (summary of the tables); conditions: 504 h, application rate of 0.08 kg of active substance or less per hectare, read-out: herbicidal action, pre-emergence treatment (very good activity)
Excerpt: (§3) 1. Pre-emergence herbicidal action against harmful plants and crop plant compatibility Seeds of monocotyledonous and dicotyledonous weed plants and crop plants are placed in plastic or wood fiber pots and covered with soil. The compounds of the invention, formulated in the form of wettable powders (WP) or as emulsion concentrates (EC), are then applied onto the surface of the covering soil as aqueous suspension or emulsion with addition of 0.5% additive at a water application rate of 600 l/ha (converted). After the treatment, the pots are placed in a greenhouse and kept under good growth conditions for the trial plants. After about 3 weeks, the effect of the preparations is scored visually in comparison with untreated controls as percentages. For example, 100% activity=the plants have died, 0% activity=like control plants.
As shown by the results, compounds according to the invention such as, for example, the compounds No. I-02 and other compounds from the tables (I-05, I-10, I-11, I-12, I-13, I-14, I-15, I-16, I-17, I-18, I-19, I-20, I-21, I-22, I-23, I-24, I-25, I-26, I-27, I-28, I-29) have, when used for pre-emergence treatment, very good activity (80% to 100% herbicidal action) against harmful plants such as Abutilon theophrasti, Alopecurus myosuroides, Amaranthus retroflexus, Avena fatua, Cyperus esculentus, Echinochloa crus-galli, Hordeum murinum, Lolium rigidum, Pharbitis purpurea, Polygonum convolvulus, Setaria viridis, Stellaria media, Veronica persica and Viola tricolor at an application rate of 0.08 kg of active substance or less per hectare.

Hordeum murinum [11] = assay: Post-emergence herbicidal activity against HORMU; conditions: dosage 320 g/ha, rated visually after about 3 weeks
How it was run: as §1

Veronica persica [12] = assay: Pre-emergence herbicidal activity against VERPE; conditions: dosage 80 g/ha
How it was run: as §2

Avena fatua [13] = assay: Post-emergence herbicidal activity against AVEFA; conditions: dosage 320 g/ha, rated visually after about 3 weeks
How it was run: as §1

Viola tricolor [14] = assay: Pre-emergence herbicidal activity against VIOTR; conditions: dosage 80 g/ha, scored visually after about 3 weeks vs untreated controls
How it was run: as §2

Setaria viridis [15] = assay: Pre-emergence herbicidal activity against SETVI; conditions: dosage 80 g/ha, scored visually after about 3 weeks vs untreated controls
How it was run: as §2

Pharbitis purpurea [16] = assay: Pre-emergence herbicidal activity against PHBPU; conditions: dosage 80 g/ha, scored visually after about 3 weeks vs untreated controls
Excerpt: as §3, with “control plants. [table]” for “control plants.”

Stellaria media [17] = assay: Post-emergence herbicidal activity against STEME; conditions: dosage 320 g/ha, rated visually after about 3 weeks
How it was run: as §1

Lolium rigidum [18] = assay: Pre-emergence herbicidal activity against LOLRI; conditions: dosage 80 g/ha, scored visually after about 3 weeks vs untreated controls
How it was run: as §2

Veronica persica [19] = assay: Post-emergence herbicidal activity against VERPE; conditions: dosage 320 g/ha, rated visually after about 3 weeks
How it was run: as §1

Amaranthus retroflexus [20] = assay: Post-emergence herbicidal activity against AMARE; conditions: dosage 320 g/ha, rated visually after about 3 weeks
How it was run: as §1

Polygonum convolvulus [21] = assay: Pre-emergence herbicidal activity against POLCO; conditions: dosage 80 g/ha, scored visually after about 3 weeks vs untreated controls
How it was run: as §2

Echinochloa crus-galli [22] = assay: Post-emergence herbicidal activity against ECHCG; conditions: dosage 320 g/ha, rated visually after about 3 weeks
How it was run: as §1

Alopecurus myosuroides [23] = assay: Post-emergence herbicidal activity against ALOMY; conditions: dosage 320 g/ha, rated visually after about 3 weeks
How it was run: as §1

Echinochloa crus-galli [24] = assay: Pre-emergence herbicidal activity against ECHCG; conditions: dosage 80 g/ha, scored visually after about 3 weeks vs untreated controls
How it was run: as §2

Setaria viridis [25] = assay: Post-emergence herbicidal activity against SETVI; conditions: dosage 320 g/ha, rated visually after about 3 weeks
How it was run: as §1

In the case of `C=C[C@]1(C(=O)N[C@@H]2CO[C@H](C(=O)NS(=O)(=O)C(F)(F)F)C2)CC(c2cc(F)cc(F)c2)=NO1` (mixture of isomers) [Example I-14, (5S)-3-(3,5-difluorophenyl)-N-[cis-5-(trifluoromethylsulfonylcarbamoyl)tetrahydrofuran-3-yl]-5-vinyl-4H-isoxazole-5-carboxamide], the pest or weed control at 320 g/ha (Polygonum convolvulus [1]; Fallopia convolvulus, 504 h) is reported as 80%, the pest or weed control at 320 g/ha (Abutilon theophrasti; Abutilon theophrasti, 504 h) is reported as 90% and the pest or weed control at 320 g/ha (Viola tricolor [2]; Viola tricolor, 504 h) is reported as 100%. The pest or weed control at 320 g/ha (Lolium rigidum [3]; Lolium rigidum, 504 h) was 90%, the pest or weed control at 80 g/ha (Stellaria media [4]; Stellaria media, 504 h) was 90% and the pest or weed control at 320 g/ha (Pharbitis purpurea [5]; Ipomoea purpurea, 504 h) was 80%. For the same compound, the pest or weed control at 80 g/ha (Avena fatua [6]; Avena fatua, 504 h, read-out: Pre-emergence herbicidal activity in % against AVEVA (AVEFA)) was 90%, the pest or weed control at 80 g/ha (Hordeum murinum [7]; Hordeum murinum, 504 h) was 90% and the pest or weed control at 80 g/ha (Amaranthus retroflexus [8]; Amaranthus retroflexus, 504 h) was 100%. It also gave a pest or weed control at 80 g/ha (Alopecurus myosuroides [9]; Alopecurus myosuroides, 504 h) of 100%, a pest or weed control at 80 g/ha [10] of 80 to 100% and a pest or weed control at 320 g/ha (Hordeum murinum [11]; Hordeum murinum, 504 h) of 80%. The pest or weed control at 80 g/ha (Veronica persica [12]; Veronica persica, 504 h) was 90%, the pest or weed control at 320 g/ha (Avena fatua [13]; Avena fatua, 504 h) was 80% and the pest or weed control at 80 g/ha (Viola tricolor [14]; Viola tricolor, 504 h) was 100%. The pest or weed control at 80 g/ha (Setaria viridis [15]; Setaria viridis, 504 h) was 100%, the “Pre-emergence herbicidal activity in % against PHBPU” value (Pharbitis purpurea [16]) was 90% and the pest or weed control at 320 g/ha (Stellaria media [17]; Stellaria media, 504 h) was 90%. For the same compound, the pest or weed control at 80 g/ha (Lolium rigidum [18]; Lolium rigidum, 504 h) was 100%, the pest or weed control at 320 g/ha (Veronica persica [19]; Veronica persica, 504 h) was 90% and the pest or weed control at 320 g/ha (Amaranthus retroflexus [20]; Amaranthus retroflexus, 504 h) was 80%. It also gave a pest or weed control at 80 g/ha (Polygonum convolvulus [21]; Fallopia convolvulus, 504 h) of 100%, a pest or weed control at 320 g/ha (Echinochloa crus-galli [22]; Echinochloa crus-galli, 504 h) of 80% and a pest or weed control at 320 g/ha (Alopecurus myosuroides [23]; Alopecurus myosuroides, 504 h) of 90%. The pest or weed control at 80 g/ha (Echinochloa crus-galli [24]; Echinochloa crus-galli, 504 h) was 100%.
For `CONC(=O)[C@@H]1C[C@H](NC(=O)[C@@]2(C)CC(c3cc(F)cc(F)c3)=NO2)CO1` [Example I-24], the “Post-emergence herbicidal activity in % against POLCO” value (Polygonum convolvulus [1]) was 80%, the “Post-emergence herbicidal activity in % against SETVI” value (Setaria viridis [25]) was 80% and the “Post-emergence herbicidal activity in % against ABUTH” value (Abutilon theophrasti) was 80%. The “Post-emergence herbicidal activity in % against VIOTR” value (Viola tricolor [2]) was 90%, the “Post-emergence herbicidal activity in % against LOLRI” value (Lolium rigidum [3]) was 100% and the “Pre-emergence herbicidal activity in % against STEME” value (Stellaria media [4]) was 90%. The “Post-emergence herbicidal activity in % against PHBPU” value (Pharbitis purpurea [5]) was 90%, the “Pre-emergence herbicidal activity in % against AVEVA (AVEFA)” value (Avena fatua [6]) was 100% and the “Pre-emergence herbicidal activity in % against HORMU” value (Hordeum murinum [7]) was 100%. For the same compound, the “Pre-emergence herbicidal activity in % against AMARE” value (Amaranthus retroflexus [8]) was 100%, the “Pre-emergence herbicidal activity in % against ALOMY” value (Alopecurus myosuroides [9]) was 100% and the “Post-emergence herbicidal activity in % against HORMU” value (Hordeum murinum [11]) was 100%. For the same compound, the “Pre-emergence herbicidal activity in % against VERPE” value (Veronica persica [12]) was 90%, the “Post-emergence herbicidal activity in % against AVEFA” value (Avena fatua [13]) was 100% and the “Pre-emergence herbicidal activity in % against VIOTR” value (Viola tricolor [14]) was 90%. The “Pre-emergence herbicidal activity in % against SETVI” value (Setaria viridis [15]) was 100%, the “Pre-emergence herbicidal activity in % against PHBPU” value (Pharbitis purpurea [16]) was 90% and the “Post-emergence herbicidal activity in % against STEME” value (Stellaria media [17]) was 100%. For the same compound, the “Pre-emergence herbicidal activity in % against LOLRI” value (Lolium rigidum [18]) was 100%, the “Post-emergence herbicidal activity in % against VERPE” value (Veronica persica [19]) was 80% and the “Post-emergence herbicidal activity in % against AMARE” value (Amaranthus retroflexus [20]) was 80%. For the same compound, the “Pre-emergence herbicidal activity in % against POLCO” value (Polygonum convolvulus [21]) was 90%, the “Post-emergence herbicidal activity in % against ECHCG” value (Echinochloa crus-galli [22]) was 100% and the “Post-emergence herbicidal activity in % against ALOMY” value (Alopecurus myosuroides [23]) was 100%. The “Pre-emergence herbicidal activity in % against ECHCG” value (Echinochloa crus-galli [24]) was 90%.
